Measured values reported in patent US10800782B2, “Inhibitors of cellular metabolic processes” (Agios Pharmaceuticals, Inc., priority 2016, dated 2020).
pIC50: −log10 of the molar value.

target: T1, MAT2A (Homo sapiens, UniProt P31153); experiment: MAT2A biochemical assay (colorimetric inorganic phosphate detection, PiColorLock); conditions: recombinant His6-tagged MAT2A 1 μg/ml; 60 minutes preincubation at 25° C.; L-Met 80 μM, ATP 100 μM; 60 minutes reaction; read at 623 nm; read-out: MAT2A Inhibition Score
T1 construct: His6; made in house; host or cells: SF9 insect cells
How it was run: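 His6-tagged human MAT2A (SF9-expressed, 1 μg/ml) converting L-Met and ATP to SAM in Tris pH 8.0, 50 mM KCl, 15 mM MgCl2, 300 uM EDTA, 0.005% BSA; 60 min at room temperature. Released phosphate detected colorimetrically with malachite green phosphomolybdate. Ten-point, three-fold compound dilution series.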

T1 sequence (P31153 whole entry): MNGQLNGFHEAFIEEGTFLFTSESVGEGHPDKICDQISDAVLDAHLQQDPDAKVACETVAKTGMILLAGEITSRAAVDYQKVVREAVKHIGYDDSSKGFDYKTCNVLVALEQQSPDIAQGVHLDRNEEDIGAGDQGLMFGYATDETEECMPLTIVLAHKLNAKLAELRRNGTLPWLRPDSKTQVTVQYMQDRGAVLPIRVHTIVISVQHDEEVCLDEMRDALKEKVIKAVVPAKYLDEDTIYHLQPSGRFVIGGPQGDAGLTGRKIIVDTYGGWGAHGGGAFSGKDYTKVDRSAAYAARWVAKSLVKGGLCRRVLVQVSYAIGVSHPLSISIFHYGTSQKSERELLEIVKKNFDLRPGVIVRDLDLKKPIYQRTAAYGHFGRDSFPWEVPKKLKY

| Compound | pIC50 |
| --- | --- |
| Cc1[nH]c2c(-c3ccccc3)c(-c3cccc(Cl)c3)nn2c(=O)c1-c1ccc2ncccc2c1 [Compound 346, 2-(3-chlorophenyl)-5-methyl-3-phenyl-6-(quinolin-6-yl)pyrazolo[1,5-a]pyrimidin-7(4H)-one] | 5.00 to 6.00 |
| Cc1[nH]c2c(-c3ccccc3)c(-c3ccc(Cl)cc3)nn2c(=O)c1-c1ccc2ncccc2c1 [Compound 347, 2-(4-chlorophenyl)-5-methyl-3-phenyl-6-(quinolin-6-yl)pyrazolo[1,5-a]pyrimidin-7(4H)-one] | 5.00 to 6.00 |
| Cc1[nH]c2c(-c3ccccc3)c(-c3ccncc3)nn2c(=O)c1-c1ccc2ncccc2c1 [Compound 348, 5-methyl-3-phenyl-2-(pyridin-4-yl)-6-(quinolin-6-yl)pyrazolo[1,5-a]pyrimidin-7(4H)-one] | 5.00 to 6.00 |
| COc1ccc(-c2nn3c(=O)c(-c4ccc5ncccc5c4)c(C)[nH]c3c2-c2ccccc2)cn1 [Compound 349, 2-(6-methoxypyridin-3-yl)-5-methyl-3-phenyl-6-(quinolin-6-yl)pyrazolo[1,5-a]pyrimidin-7(4H)-one] | 5.00 to 6.00 |
| Cc1[nH]c2c(-c3ccccc3)c(-c3ccnc(Cl)c3)nn2c(=O)c1-c1ccc2ncccc2c1 [Compound 350, 2-(2-chloropyridin-4-yl)-5-methyl-3-phenyl-6-(quinolin-6-yl)pyrazolo[1,5-a]pyrimidin-7(4H)-one] | 5.00 to 6.00 |
| COc1cc(-c2nn3c(=O)c(-c4ccc5ncccc5c4)c(C)[nH]c3c2-c2ccccc2)ccn1 [Compound 351, 2-(2-methoxypyridin-4-yl)-5-methyl-3-phenyl-6-(quinolin-6-yl)pyrazolo[1,5-a]pyrimidin-7(4H)-one] | 5.00 to 6.00 |
| O=c1c(-c2ccc3ncccc3c2)cn(CCn2cnnn2)c2c(-c3ccccc3)c(-c3ccccc3)nn12 [Compound 352, 4-(2-(1H-tetrazol-1-yl)ethyl)-2,3-diphenyl-6-(quinolin-6-yl)pyrazolo[1,5-a]pyrimidin-7(4H)-one] | 5.00 to 6.00 |
| NCCn1cc(-c2ccc3ncccc3c2)c(=O)n2nc(-c3ccccc3)c(-c3ccccc3)c12 [Compound 353, 4-(2-aminoethyl)-2,3-diphenyl-6-(quinolin-6-yl)pyrazolo[1,5-a]pyrimidin-7(4H)-one] | 5.00 to 6.00 |
| COc1ccc(-c2c(Oc3cccnn3)[nH]c3c(-c4ccccc4)c(-c4ccccc4)nn3c2=O)cc1 [Compound 354, 6-(4-methoxyphenyl)-2,3-diphenyl-5-(pyridazin-3-yloxy)pyrazolo[1,5-a]pyrimidin-7(4H)-one] | 5.00 to 6.00 |
| COc1ccc(-c2c(Oc3ccccc3)[nH]c3c(-c4ccccc4)c(-c4ccccc4)nn3c2=O)cc1 [Compound 355, 6-(4-methoxyphenyl)-5-phenoxy-2,3-diphenylpyrazolo[1,5-a]pyrimidin-7(4H)-one] | 5.00 to 6.00 |
| COc1ccc(-c2c(Nc3ccccc3)[nH]c3c(-c4ccccc4)c(-c4ccccc4)nn3c2=O)cc1 [Compound 356, 6-(4-methoxyphenyl)-2,3-diphenyl-5-(phenylamino)pyrazolo[1,5-a]pyrimidin-7(4H)-one] | 6.00 to 7.00 |
| COc1ccc(-c2c(C)[nH]c3c(N4CCCCC4)c(-c4ccccc4)nn3c2=O)cn1 [Compound 358, 6-(6-methoxypyridin-3-yl)-5-methyl-2-phenyl-3-(piperidin-1-yl)pyrazolo[1,5-a]pyrimidin-7(4H)-one] | > 7.00 |
